Like-named read-outs stand apart in the source and are kept apart here.

In this assay the test system is HBV rcDNA in HepDE19 cells. Description: HepDE19 assay with bDNA quantitation of HBV rcDNA. The note with it: HepDE19 cells, inhibition of rcDNA formation, 7 day incubation, top concentration 25 μM, read-out: DE-19 bDNA EC50. Type of assay: cell-based, hepatitis B virus (HBV).
The mark [1] stands for this setting: Hepatitis B virus, HepDE19, 168 h.

Take `O=C(NC1CCc2c(C(=O)Nc3ccc(F)c(Cl)c3)ccnc21)OCc1ccccn1` (stereo not drawn) [Compound 266, O-Pyridin-2-ylmethyl, N-(4-((3-chloro-4-fluorophenyl)carbamoyl)-6,7-dihydro-5H-cyclopenta[b]pyridin-7-yl) carbamate]: the EC50 (usually the concentration that produces a half-maximal response) came to 0.43 µM.

Consider `O=C(NC1CCc2c(C(=O)Nc3ccc(F)c(Cl)c3)ccnc21)OCc1ccccn1` (stereo not drawn) [Compound 267, O-Pyridin-2-ylmethyl, N-(4-((3-chloro-4-fluorophenyl)carbamoyl)-6,7-dihydro-5H-cyclopenta[b]pyridin-7-yl) carbamate], for which the EC50 was 4.9 µM.

In the case of `O=C(NC1CCc2c(C(=O)Nc3ccc(F)c(Cl)c3)cncc21)OCc1ccccn1` (stereo not drawn) [Compound 269, O-pyridin-2-ylmethyl, N-(4-((3-chloro-4-fluorophenyl)carbamoyl)-6,7-dihydro-5H-cyclopenta[c]pyridin-7-yl) carbamate], the EC50 came out at 2.3 µM.

Regarding `O=C(NC1CCc2c(C(=O)Nc3ccc(F)c(Cl)c3)cncc21)OCc1ccccn1` (stereo not drawn) [Compound 270, O-Pyridin-2-ylmethyl, N-(4-((3-chloro-4-fluorophenyl)carbamoyl)-6,7-dihydro-5H-cyclopenta[c]pyridin-7-yl) carbamate], the EC50 was 1.1 µM.

In the case of `O=C(Nc1ccc(F)c(Cl)c1)c1ccc(F)c2c1CCS2(=O)=O` [Compound 272, N-(3-Chloro-4-fluorophenyl)-7-fluoro-2,3-dihydrobenzo[b]thiophene-4-carboxamide 1,1-dioxide], under setting [1], the EC50 was 0.22 µM.

As to `O=C(Nc1ccc(F)c(Cl)c1)c1cccc2c1CCS2(=O)=O` [Compound 273, N-(3-Chloro-4-fluorophenyl)-2,3-dihydrobenzo[b]thiophene-4-carboxamide 1,1-dioxide], the EC50 under setting [1] was 0.21 µM.

With `CC(C)(C)N1Cc2c(C(=O)Nc3ccc(F)c(Cl)c3)cccc2S1(=O)=O` [Compound 274, 2-(tert-Butyl)-N-(3-chloro-4-fluorophenyl)-2,3-dihydrobenzo[d]isothiazole-4-carboxamide 1,1-dioxide], the EC50 under setting [1] came to 4.1 µM.

Take `O=C(Nc1ccc(F)c(Cl)c1)c1cccc2c1CNS2(=O)=O` [Compound 275, N-(3-Chloro-4-fluorophenyl)-2,3-dihydrobenzo[d]isothiazole-4-carboxamide-1,1-dioxide]: the EC50 under setting [1] amounted to 0.25 µM.

Regarding `O=C(Nc1ccc(F)c(Cl)c1)c1cccc2c1CN(CCO)S2(=O)=O` [Compound 276, N-(3-Chloro-4-fluorophenyl)-2-(2-hydroxyethyl)-2,3-dihydrobenzo[d]isothiazole-4-carboxamide 1,1-dioxide], the EC50 under setting [1] is 1.4 µM.

For `CN1Cc2c(C(=O)Nc3ccc(F)c(Cl)c3)cccc2S1(=O)=O` [Compound 277, N-(3-Chloro-4-fluorophenyl)-2-methyl-2,3-dihydrobenzo[d]isothiazole-4-carboxamide 1,1-dioxide], the EC50 under setting [1] was found to be 2.2 µM.

As for `CC(C)N1Cc2c(C(=O)Nc3ccc(F)c(Cl)c3)cccc2S1(=O)=O` [Compound 278, N-(3-Chloro-4-fluorophenyl)-2-isopropyl-2,3-dihydrobenzo[d]isothiazole-4-carboxamide 1,1-dioxide], under setting [1], the EC50 came out at 1.3 µM.

For `O=C(Nc1ccc(F)c(Cl)c1)c1cccc2c1CN(C1CC1)S2(=O)=O` [Compound 279, N-(3-chloro-4-fluorophenyl)-2-cyclopropyl-2,3-dihydrobenzo[d]isothiazole-4-carboxamide 1,1-dioxide], under setting [1], the EC50 turned out to be 0.58 µM.

On to `CC(C)(C)[S@+]([O-])N[C@H]1CCc2c(C(=O)Nc3ccc(F)c(Cl)c3)ccc(F)c21` [Compound 280, (S)-1-(((S)-tert-Butylsulfinyl)amino)-N-(3-chloro-4-fluorophenyl)-7-fluoro-2,3-dihydro-1H-indene-4-carboxamide], for which the EC50 under setting [1] amounted to 4.6 µM.

Regarding `CC(C)(C)[S@@+]([O-])N[C@H]1CCc2c(C(=O)Nc3ccc(F)c(Cl)c3)ccc(F)c21` [Compound 281, (S)-1-(((R)-tert-Butylsulfinyl)amino)-N-(3-chloro-4-fluorophenyl)-7-fluoro-2,3-dihydro-1H-indene-4-carboxamide], the concentration giving a half-maximal response (EC50) under setting [1] worked out at 4.4 µM.

As to `COC(=O)NC1CC(C)(C)c2c(C(=O)Nc3ccc(F)c(Cl)c3)ccc(F)c21` (stereo not drawn) [Compound 282, O-methyl, N-(4-((3-chloro-4-fluorophenyl)carbamoyl)-7-fluoro-3,3-dimethyl-2,3-dihydro-1H-inden-1-yl) carbamate], the EC50 came out at 15 µM.

Source of the values: patent US11098010B2 (priority 2017, dated 2021).
